# Laboratory results as given in ChEMBL document CHEMBL1201862, “PubChem BioAssay data set” (2004).
#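 Briefly, cells in 96-well plates were exposed to five compound concentrations for 48 h, and endpoints were estimated by linear interpolation. Abbreviation: GI50, concentration required for 50% inhibition of growth.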 Calls of active or inactive are those of the source. No stated cut-off is given here; in the data, active = GI50 up to about 1.1 µM and inactive = higher.
# Experiments:
# Assay in all cases: DTP human tumour cell line panel, 48 h
# [1] = test system: 786-0
# [2] = test system: A498
# [3] = test system: A549
# [4] = test system: ACHN
# [5] = test system: BT-549
# [6] = test system: CAKI-1
# [7] = test system: CCRF-CEM
# [8] = test system: COLO 205
# [9] = test system: DU-145
# [10] = test system: EKVX
# [11] = test system: HCC 2998
# [12] = test system: HCT-116
# [13] = test system: HCT-15
# [14] = test system: HL-60
# [15] = test system: HOP-62
# [16] = test system: HOP-92
# [17] = test system: HT-29
# [18] = test system: Hs-578T
# [19] = test system: IGROV-1
# [20] = test system: K562
# [21] = test system: KM12
# [22] = test system: LOX IMVI
# [23] = test system: M14
# [24] = test system: MCF7
# [25] = test system: MDA-MB-231
# [26] = test system: MDA-MB-435
# [27] = test system: MDA-N
# [28] = test system: MOLT-4
# [29] = test system: Malme-3M
# [30] = test system: NCI-H226
# [31] = test system: NCI-H23
# [32] = test system: NCI-H460
# [33] = test system: NCI-H522
# [34] = test system: NCI/ADR-RES
# [35] = test system: OVCAR-3
# [36] = test system: OVCAR-4
# [37] = test system: OVCAR-5
# [38] = test system: OVCAR-8
# [39] = test system: PC-3
# [40] = test system: RPMI-8226
# [41] = test system: RXF 393
# [42] = test system: SF-268
# [43] = test system: SF-295
# [44] = test system: SF-539
# [45] = test system: SK-MEL-28
# [46] = test system: SK-MEL-2
# [47] = test system: SK-MEL-5
# [48] = test system: SK-OV-3
# [49] = test system: SN12C
# [50] = test system: SNB-19
# [51] = test system: SNB-75
# [52] = test system: SR
# [53] = test system: SW-620
# [54] = test system: T47D
# [55] = test system: TK-10
# [56] = test system: U-251
# [57] = test system: UACC-257
# [58] = test system: UACC-62
# [59] = test system: UO-31
structure (smiles),measurement,setting,value
CN1CCN(CCCCN2c3ccccc3Sc3ccc(C(=O)c4ccccc4)cc32)CC1,GI50,[1],1580 nM (inactive)
same,GI50,[2],1560 nM (inactive)
same,GI50,[3],1950 nM (inactive)
same,GI50,[4],1670 nM (inactive)
same,GI50,[5],1650 nM (inactive)
same,GI50,[6],1440 nM (inactive)
same,GI50,[7],1640 nM (inactive)
same,GI50,[8],1750 nM (inactive)
same,GI50,[9],2290 nM (inactive)
same,GI50,[10],2360 nM (inactive)
same,GI50,[11],1560 nM (inactive)
same,GI50,[12],1820 nM (inactive)
same,GI50,[13],1670 nM
same,GI50,[14],1570 nM (inactive)
same,GI50,[15],1600 nM (inactive)
same,GI50,[16],1820 nM (inactive)
same,GI50,[17],1290 nM (inactive)
same,GI50,[18],1580 nM (inactive)
same,GI50,[19],1720 nM (inactive)
same,GI50,[20],1480 nM (inactive)
same,GI50,[21],1490 nM (inactive)
same,GI50,[22],1460 nM (inactive)
same,GI50,[23],1820 nM (inactive)
same,GI50,[24],1910 nM (inactive)
same,GI50,[25],1900 nM (inactive)
same,GI50,[26],1730 nM (inactive)
same,GI50,[27],1550 nM (inactive)
same,GI50,[28],1710 nM (inactive)
same,GI50,[29],2340 nM (inactive)
same,GI50,[30],1800 nM (inactive)
same,GI50,[31],1850 nM (inactive)
same,GI50,[32],1540 nM (inactive)
same,GI50,[33],1780 nM (inactive)
same,GI50,[34],1860 nM (inactive)
same,GI50,[35],1660 nM (inactive)
same,GI50,[36],2080 nM (inactive)
same,GI50,[37],2840 nM (inactive)
same,GI50,[38],1500 nM (inactive)
same,GI50,[39],1500 nM (inactive)
same,GI50,[40],1790 nM (inactive)
same,GI50,[41],923 nM (active)
same,GI50,[42],2230 nM (inactive)
same,GI50,[43],1800 nM (inactive)
same,GI50,[44],1830 nM (inactive)
same,GI50,[45],1490 nM (inactive)
same,GI50,[46],1770 nM (inactive)
same,GI50,[47],1540 nM (inactive)
same,GI50,[48],1570 nM (inactive)
same,GI50,[49],1710 nM (inactive)
same,GI50,[50],1910 nM (inactive)
same,GI50,[51],1260 nM (inactive)
same,GI50,[52],1410 nM (inactive)
same,GI50,[53],1730 nM (inactive)
same,GI50,[54],5650 nM (inactive)
same,GI50,[55],1670 nM (inactive)
same,GI50,[56],1690 nM (inactive)
same,GI50,[57],1750 nM (inactive)
same,GI50,[58],1260 nM (inactive)
same,GI50,[59],2650 nM (inactive)
NC1CCC(c2cc3ccccc3s2)(N2CCCCC2)CC1 (configuration not stated),GI50,[1],1500 nM (inactive)
same,GI50,[2],9290 nM (inactive)
same,GI50,[3],1770 nM (inactive)
same,GI50,[4],3410 nM (inactive)
same,GI50,[5],1210 nM (inactive)
same,GI50,[6],2570 nM (inactive)
same,GI50,[7],1010 nM (active)
same,GI50,[8],1580 nM (inactive)
same,GI50,[9],4670 nM (inactive)
same,GI50,[10],1410 nM (inactive)
same,GI50,[11],1040 nM (active)
same,GI50,[12],1690 nM (inactive)
same,GI50,[13],1770 nM
same,GI50,[14],1850 nM (inactive)
same,GI50,[15],1350 nM (inactive)
same,GI50,[16],489 nM (active)
same,GI50,[17],1210 nM (inactive)
same,GI50,[18],4110 nM (inactive)
same,GI50,[19],1660 nM (inactive)
same,GI50,[20],1630 nM (inactive)
same,GI50,[21],1730 nM (inactive)
same,GI50,[22],1510 nM (inactive)
same,GI50,[23],1540 nM (inactive)
same,GI50,[24],1680 nM (inactive)
same,GI50,[25],3350 nM (inactive)
same,GI50,[26],1350 nM (inactive)
same,GI50,[27],1740 nM (inactive)
same,GI50,[28],1320 nM (inactive)
same,GI50,[29],2230 nM (inactive)
same,GI50,[30],24100 nM (inactive)
same,GI50,[31],1640 nM (inactive)
same,GI50,[32],1630 nM (inactive)
same,GI50,[33],1760 nM (inactive)
same,GI50,[34],1190 nM (inactive)
same,GI50,[35],1270 nM (inactive)
same,GI50,[36],3330 nM (inactive)
same,GI50,[37],1480 nM (inactive)
same,GI50,[38],1720 nM (inactive)
same,GI50,[39],1550 nM (inactive)
same,GI50,[40],817 nM (active)
same,GI50,[41],6010 nM (inactive)
same,GI50,[42],3570 nM (inactive)
same,GI50,[43],2640 nM (inactive)
same,GI50,[44],2060 nM (inactive)
same,GI50,[45],1580 nM (inactive)
same,GI50,[46],1550 nM (inactive)
same,GI50,[47],2080 nM (inactive)
same,GI50,[48],10600 nM (inactive)
same,GI50,[49],1670 nM (inactive)
same,GI50,[50],12500 nM (inactive)
same,GI50,[51],10500 nM (inactive)
same,GI50,[52],1540 nM (inactive)
same,GI50,[53],1610 nM (inactive)
same,GI50,[54],2090 nM (inactive)
same,GI50,[55],5780 nM (inactive)
same,GI50,[56],1530 nM (inactive)
same,GI50,[57],1620 nM (inactive)
same,GI50,[58],2470 nM (inactive)
same,GI50,[59],2310 nM (inactive)
O=C1/C(=C\c2ccc(-c3ccc(Cl)cc3Cl)o2)SC2NC(COc3ccc(Cl)cc3)=NN12 (configuration not stated),GI50,[1],51200 nM (inactive)
same,GI50,[2],2190 nM (inactive)
same,GI50,[3],69700 nM (inactive)
same,GI50,[4],53700 nM (inactive)
same,GI50,[5],47000 nM (inactive)
same,GI50,[6],51100 nM (inactive)
same,GI50,[7],16000 nM (inactive)
same,GI50,[8],41500 nM (inactive)
same,GI50,[9],65600 nM (inactive)
same,GI50,[10],32400 nM (inactive)
same,GI50,[11],41100 nM (inactive)
same,GI50,[12],48400 nM (inactive)
same,GI50,[13],34900 nM
same,GI50,[14],22500 nM (inactive)
same,GI50,[15],80400 nM (inactive)
same,GI50,[16],26500 nM (inactive)
same,GI50,[17],79400 nM (inactive)
same,GI50,[18],25500 nM (inactive)
same,GI50,[19],29900 nM (inactive)
same,GI50,[20],48900 nM (inactive)
same,GI50,[21],55500 nM (inactive)
same,GI50,[22],52100 nM (inactive)
same,GI50,[23],> 100000 nM (inactive)
same,GI50,[24],33400 nM (inactive)
same,GI50,[25],44000 nM (inactive)
same,GI50,[26],38700 nM (inactive)
same,GI50,[27],44200 nM (inactive)
same,GI50,[28],31800 nM (inactive)
same,GI50,[29],42200 nM (inactive)
same,GI50,[30],20200 nM (inactive)
same,GI50,[31],53200 nM (inactive)
same,GI50,[32],38500 nM (inactive)
same,GI50,[33],55000 nM (inactive)
same,GI50,[34],37500 nM (inactive)
same,GI50,[35],36000 nM (inactive)
same,GI50,[36],45300 nM (inactive)
same,GI50,[37],> 100000 nM (inactive)
same,GI50,[38],38300 nM (inactive)
same,GI50,[39],64700 nM (inactive)
same,GI50,[40],38400 nM (inactive)
same,GI50,[41],27500 nM (inactive)
same,GI50,[42],36000 nM (inactive)
same,GI50,[43],45300 nM (inactive)
same,GI50,[44],49000 nM (inactive)
same,GI50,[45],> 100000 nM (inactive)
same,GI50,[46],50500 nM (inactive)
same,GI50,[47],36700 nM (inactive)
same,GI50,[48],88300 nM (inactive)
same,GI50,[49],72100 nM (inactive)
same,GI50,[50],53700 nM (inactive)
same,GI50,[51],> 100000 nM (inactive)
same,GI50,[52],33300 nM (inactive)
same,GI50,[53],60700 nM (inactive)
same,GI50,[54],27200 nM (inactive)
same,GI50,[55],2960 nM (inactive)
same,GI50,[56],21400 nM (inactive)
same,GI50,[57],21100 nM (inactive)
same,GI50,[58],34000 nM (inactive)
same,GI50,[59],> 100000 nM (inactive)
